This series has as its system human dermal fibroblast cells. Put plainly: Cytotoxicity test of chitosan derivates in vitro (MTT). The series is classed as cell-based. Conditions: 48 hours after treatment. Here is the method:
1×10^4 of human dermal fibroblast cells in 96 well plate were cultured in DMEM medium supplemented with 100 μl of 10% serum. Then, the cultured cells were treated with 5, 50, and 500 ng/ml of chitosan oligomer, CM-chitin and 3,6-S-chitin, respectively. 48 hours after treatment, MTT (3-[4,5-dimethylthiazol-2-yl]-2,5-diphenyltetrazolium bromide; Thiazolyl blue, Sigma Product No. M5655) was added thereto and then, the mixture was allowed to stand for 4 hours. After removal of the culture medium, the resultant mixture was washed with phosphate buffered saline 2-3 times and 100 μl of DMSO (dimethylsulfoxide) was added thereto. After chromogenesis, an absorbance was measured at 545 nm on each well using ELISA reader.

For 3,6-S-chitin, the “Viability Assay Result Of Human Dermal Fibroblasts (MTT absorbance at 545 nm)” value is, setting by setting: (5 ng/ml) 0.608; (50 ng/ml) 0.727; (500 ng/ml) 0.595.

As to CM-chitin, the “Viability Assay Result Of Human Dermal Fibroblasts (MTT absorbance at 545 nm)” value (5 ng/ml) came out at 0.603, the “Viability Assay Result Of Human Dermal Fibroblasts (MTT absorbance at 545 nm)” value (50 ng/ml) is 0.630 and the “Viability Assay Result Of Human Dermal Fibroblasts (MTT absorbance at 545 nm)” value (500 ng/ml) is given as 0.603.

In the case of chitosan oligomer, the “Viability Assay Result Of Human Dermal Fibroblasts (MTT absorbance at 545 nm)” value is listed as 0.629 (5 ng/ml), 0.618 (50 ng/ml) and 0.733 (500 ng/ml).
